According to ChEMBL document CHEMBL3507680, “University of Dundee, Gates Library screen for HepG2 cell viability”:

Assay: Human HepG2 cell viability assay in 384 well format
Type: toxicity, cell-based
Set-up: dose 125 nL, time 70.5 hour; concentration not given beside the values
Details: HepG2 cells, read-out: Inhibition

Row | Structure (SMILES) | cytotoxicity at 70.5 h
1 | COc1cnc(N2CC(N3CCOCC3)C2)nc1-c1ccnn1C | 6.03%
2 | O=C(c1ccc(SC(F)(F)F)cc1)N1CCOCC1c1ncon1 (stereo not drawn) | -5.57%
3 | CCc1ncncc1C(=O)N1CCN(Cc2cscn2)CC1 | -3.97%
4 | CN(C)CCn1ccnc1C1CCN(C(=O)CCc2ccncc2)CC1 | -5.61%
5 | O=C(Cc1cccs1)Nc1cnn(C2CCOCC2)c1 | -12.8%
6 | Cc1cc(C(=O)NC2(c3ccc(Br)cc3)CC2)n(C)n1 | 6.63%
7 | O=C(c1cscn1)N1CCC2(COc3ncccc3S(=O)(=O)N2)C1 (stereo not drawn) | -3.8%
8 | Cc1nc(CNCC2CN(C3CC3)CCO2)cs1 (stereo not drawn) | 23.8%
9 | O=C(NCC1CCN(Cc2cc3ccccc3[nH]2)C1)c1ccsc1 (stereo not drawn) | -9.16%
10 | CC(c1ccc(F)c(F)c1)N1CCN(Cc2nccn2C)CC1 (stereo not drawn) | 47.8%
11 | COc1ccc(CNc2c(C)nn(C(C)C)c2C)cc1 | 13.9%
12 | Cc1cccc(CCC(=O)N2CCCC(c3cc(C(N)=O)[nH]n3)C2)c1 (stereo not drawn) | 19%
13 | CN1CCN(CC2CC2)C(=O)C12CCN(C(=O)CC(F)(F)F)CC2 | -4.4%
14 | COc1ccc(F)c(CN2CCCC3(CCN(C4CCOCC4)C3)C2)c1 (stereo not drawn) | -4.15%
15 | O=C(NCCN1CCOCC1)c1cnc(-c2ccccc2F)s1 | -3.87%
16 | Cc1cccc(-c2ccc(C(=O)NCC3CCOC3)c(=O)[nH]2)c1 (stereo not drawn) | -28.7%
17 | Cc1nc(C)n(C2CCCN(C(=O)c3csc(C)n3)C2)n1 (stereo not drawn) | -5.49%
18 | OCC1CCCN1c1cc(NCc2ccccn2)ncn1 (stereo not drawn) | 0.0157%
19 | CC(=O)NS(=O)(=O)c1ccc2c(c1)N(C)CCC2 | -5.49%
20 | Cc1ccc(F)c2c1CCCN2C(=O)Cc1c(C)nn(C)c1C | -5.29%
21 | CC(NC(=O)CCCc1nc(C(C)(C)C)no1)c1ccccn1 (stereo not drawn) | 10.9%
22 | O=C(NCCc1ccccc1)C1CCC(Cn2cnnn2)CC1 (stereo not drawn) | -2.34%
23 | Cc1csc(N2CCN(Cc3ccn(C)c(=O)c3)CC2)n1 | -5.98%

Row | Structure (SMILES) | cytotoxicity at 70.5 h
24 | CCOC(=O)N1CCN(C(=O)c2sc(-c3ccccc3)nc2C)CC1 | 48.7%
25 | Cc1cc(-c2ccc(C(C)N3CCOCC3)cc2)cnc1N (stereo not drawn) | -4.56%
26 | Cc1cc(N(C)C)nc(N(C)Cc2csc(C)n2)n1 | -7.95%
27 | Cc1nn(C)c(C)c1CC(=O)N1CCCC(n2ccnc2)C1 (stereo not drawn) | -3.37%
28 | O=S(=O)(C1CC1)N1CCC2(CCCN(c3ncc(F)cn3)C2)C1 (stereo not drawn) | -11.2%
29 | CCC[C@H]1CN(C2CCOCC2)C[C@@H]1NC(=O)CCCn1ccnc1 | -2.79%
30 | COCCN1CCN(c2ccc3ccc(C(=O)NC4CC4)cn23)CC1 | -2.48%
31 | Cc1nc[nH]c1CN1CCN(C(=O)C2CC2)[C@H]2CS(=O)(=O)C[C@H]21 | -12.6%
32 | Cc1noc(C)c1CN1CCC(NC(=O)OC(C)(C)C)CC1 | -0.745%
33 | CCN1C[C@@H]2CN(c3cc(OC)ncn3)CCC[C@]2(C(=O)O)C1 | -10.9%
34 | Cc1cnn(CC2CCCN2C(=O)c2cccc(-n3cnnn3)c2)c1 (stereo not drawn) | -28.5%
35 | Cc1n[nH]c(C)c1C1COCCN1C(=O)Cc1ccccc1F (stereo not drawn) | -0.503%
36 | COc1cccc(C(=O)N2CCC3(CCC(=O)N(C(C)C)C3)CC2)c1C | -4.66%
37 | CC(C)[C@H]1COC(=O)N1Cc1nncn1C(C)C | -7.29%
38 | Cc1cc(CN2C[C@@H]3CN(C(=O)c4ccsc4)CCO[C@@H]3C2)no1 | 5.07%
39 | Cc1cccc(CN2C[C@@H]3CC[C@H](C2)N(Cc2c(C)noc2C)C3=O)n1 | -3.2%
40 | CCCc1nccn1-c1ccc(C(C)O)cc1 (stereo not drawn) | -5.9%
41 | COCCNC(=O)CN1CC=C(n2c(C)nc(=O)c3ccccc32)CC1 | 0.895%
42 | C=Cn1ncc(CN2C[C@@H]3C[C@@H](O)CN3C[C@@H]2Cc2ccccc2)c1C | 1.04%
43 | CN(C)C1CCN(C(=O)c2ccnn2-c2ccc3ccccn23)CC1 | -5.01%
44 | NC(=O)C1CN(C(=O)Nc2ccccc2SC(F)(F)F)CCO1 (stereo not drawn) | -10.6%
45 | CCNC(=O)CCC(=O)Nc1ccc2nn(C(C)C)cc2c1 | 18.4%
46 | CN(CCN1CCOC1=O)CC(=O)Nc1ccc(Cl)c(Cl)c1 | -20.1%

Row | Structure (SMILES) | cytotoxicity at 70.5 h
47 | Cc1nc(C2CCCN(C(=O)c3ccc(OCC4CC4)nc3)C2)no1 (stereo not drawn) | -2.87%
48 | O=C1NCC2(CCCN(C(=O)c3ccc4c(c3)CCCO4)CC2)O1 (stereo not drawn) | 4.55%
49 | CN(C)CC(=O)N1CCN(c2cc(N3CCCC3CO)ncn2)CC1 (stereo not drawn) | -6.08%
50 | COc1ncc(CN(CCCN2CCOCC2)Cc2ccc(C)o2)cn1 | -4.04%
51 | CSC(C)(C)CNC(=O)NCc1cccc(-n2cncn2)c1 | -0.656%
52 | O=C(Cc1ccco1)N1CCC2(CCOCC2COCC2CC2)CC1 (stereo not drawn) | -4.14%
53 | CCc1noc(C(C)N2CCN(CCN3CCCC3=O)CC2)n1 (stereo not drawn) | -2.78%
54 | COC1CCN(C(=O)CC(C)(C)C)CC(=O)N(C)c2ccccc21 (stereo not drawn) | 6.54%
55 | Cn1cc(C2CCCN2C(=O)c2cnc(-c3ccccn3)s2)cn1 (stereo not drawn) | 3.12%
56 | COc1ccc(OCc2cc(C(=O)N3CCC(O)CC3)n[nH]2)c(Cl)c1 | -5.72%
57 | Cc1ccccc1[C@@H]1CN(CCOCCO)C[C@H]1C(=O)O | -6.95%
58 | Cc1ncc(C(=O)N2CCCC(n3nc(C)nc3C)C2)c(C(C)C)n1 (stereo not drawn) | -4.64%
59 | Cc1ncsc1CN1CCN(C)C2(CCC(=O)N(CCO)CC2)C1 (stereo not drawn) | 3.92%
60 | CCC1=NC(SCC(=O)c2ccc(C)cc2)c2cc(CC)sc2N1 (stereo not drawn) | -15.9%
61 | COc1ccnc(N2CCC3(CCCN(CC4CC4)C3=O)C2)n1 (stereo not drawn) | -6.47%
62 | CCN(CC1CN(Cc2c(C)noc2C)CCO1)c1cccnn1 (stereo not drawn) | 12.5%
63 | CC(=O)N1CCC(NC(=O)NCCCc2cn[nH]c2C)CC1 | 0.436%
64 | CCc1noc(CN2CCCC(Cn3nc(C)nc3C)C2)n1 (stereo not drawn) | -12.1%
65 | CCCc1cc(N2CCCC2Cn2nc(C)nc2C)n2ncnc2n1 (stereo not drawn) | -0.261%
66 | COCC1CN(Cc2ccc(C)o2)Cc2nnn(CC3CC3)c21 (stereo not drawn) | -5.7%
67 | CN1C(=O)CC(c2cnn(C)c2)C12CCN(C(=O)C1CC=CC1)CC2 (stereo not drawn) | -6.39%
68 | CC(Oc1cccc(Cl)c1)C(=O)Nc1cnn(CC(=O)NC2CC2)c1 (stereo not drawn) | -17.2%
69 | CC(NC(=O)N1CCc2ccccc21)c1nncn1C (stereo not drawn) | -12.2%

Row | Structure (SMILES) | cytotoxicity at 70.5 h
70 | O=C(NC1=NCCCN1c1ccc(Cl)cc1)c1cccc(Cl)c1 | 9.24%
71 | CCO[C@@H]1CCN(C(=O)c2ccc[nH]2)[C@@H]1Cc1cccnc1 | -6.51%
72 | Cc1n[nH]cc1C(=O)NCc1cccnc1N1CCc2ccccc2C1 | -3.05%
73 | CCn1cnnc1C1CCN(C(=O)c2ccccc2F)CC1 | -7.26%
74 | Cc1ncc(S(C)(=O)=O)c(N2CCCN(Cc3ccccn3)CC2)n1 | -5.13%
75 | CNC(=O)c1nc(COc2ccc3c(c2)OCO3)no1 | -9.82%
76 | CC1CCN(C(CNC(=O)CCn2cccn2)c2cccs2)CC1 (stereo not drawn) | -1.29%
77 | CNC(=O)c1ccc2c(c1)C1(CCN(CC3CC3)CC1)C(=O)N2 | 1.88%
78 | O=C1CCNc2cc3c(cc2CN1Cc1ccco1)OCO3 | -5.93%
79 | c1cncc(CN2CCCn3nnc(CN4CCCC4)c3C2)c1 | -64.2%
80 | Cc1ccc(Sc2ccc(CN3CCC4(CC3)NCCNC4=O)o2)cc1 | 1.08%
81 | CCC[C@H]1CN(S(=O)(=O)c2ccc(-c3c(C)noc3C)s2)C[C@@H]1N | -4.66%
82 | CN(Cc1cccc(C(N)=O)c1)CC1CCCN1c1cccnn1 (stereo not drawn) | -10.2%
83 | CCOc1ccc(CN(CCOC)C(=O)c2ccncc2Cl)cc1 | -3.6%
84 | Cc1cc(C2CCCN2C(=O)NCc2cccnc2N(C)C)on1 (stereo not drawn) | 23.2%
85 | CCN1CCCN(S(=O)(=O)c2cc3ccccc3o2)CC1 | -4.88%
86 | Cc1cc(C)c(CNC(=O)N2CCCC2c2cccn2C)c(=O)[nH]1 (stereo not drawn) | 5.45%
87 | CN1CC(C(=O)NCCc2ccc(F)c(Br)c2)CC1=O (stereo not drawn) | -8.01%
88 | CNc1cc(C2CCCN2Cc2ccc(OCC(=O)O)cc2)ccn1 (stereo not drawn) | -5.44%
89 | Cc1cnn(C2CCCN(C(=O)c3c(C)oc(C)c3C)C2)c1 (stereo not drawn) | -0.501%
90 | COCC(=O)N1CCC2(CC1)NC(=O)c1ccccc12 | 31.8%
91 | O=C(CCCn1cncn1)NC1(c2ccc(Cl)cc2)CCC1 | -1.83%
92 | CC(C)CC(NC(=O)CSc1ccc(F)c(Cl)c1)C(=O)O (stereo not drawn) | -18.4%

Row | Structure (SMILES) | cytotoxicity at 70.5 h
93 | COCCN1C(=O)CC[C@]12CC[C@@H](NC(=O)c1cc(C)on1)CC2 | -5.63%
94 | Cc1noc(C)c1CNCc1ccccc1N(C)C1CCN(C)CC1 | -4.38%
95 | CC(=O)Nc1cccc(C(C)NCC2CCS(=O)(=O)CC2)c1 (stereo not drawn) | -3.86%
96 | CC(=O)c1ccc(NC(=O)NCc2cccc(N(C)C)n2)cc1C | -1.51%
97 | CCc1ncc(CN2CCC(CCc3ccccc3)CC2)cn1 | 20.8%
98 | Cc1cnn(CC2CCCCN2C(=O)c2ccc3nnc(C)n3c2)c1 (stereo not drawn) | -10.9%
99 | CN(C)c1ccc(NC(=O)N2CCCCCC2c2ccncc2)cn1 (stereo not drawn) | -10.6%
100 | CC(C)(C)c1ncc(C(=O)NCCNC(=O)c2ccc(O)cc2)s1 | -7.09%
101 | O=C1NC2(CCN(CC3CC3)CC2)CC1c1ccccc1 (stereo not drawn) | -1.19%
102 | CC(C#N)CN(C)C(=O)CCNC(=O)C(C)(C)C (stereo not drawn) | 0.0301%
103 | CC(OCc1ccccc1)C(=O)NCc1ccc(N(C)C)cc1 (stereo not drawn) | -12.6%
104 | CCc1cnc(N2CC[C@H]3[C@@H]2CCC(=O)N3c2ccccc2)nc1 | 14.1%
105 | O=c1c2cnc(N3CCCC3)nc2ccn1-c1cccc(F)c1 | -0.217%
106 | CCC(CC)NC(=O)Cn1cc(C(N)=O)c(-c2ccccc2)n1 | 17.3%
107 | CCn1cc(CN2CCC(c3ncc(Cl)cc3S(C)(=O)=O)CC2)c(C)n1 | 0.165%
108 | COCCNC(=O)c1cc2c(nc1O)CC(c1cccs1)CC2=O (stereo not drawn) | -12.9%
109 | Cc1noc(C)c1CCCNC(=O)Nc1ccc2c(c1)CC(=O)N2 | -8.94%
110 | CCc1nc(CN(C)C2CCN(Cc3nnc(C4CCC4)o3)C2)no1 (stereo not drawn) | -0.232%
111 | COc1ccc(CN(C)C2CSCCSC2)c2cccnc12 | -6.62%
112 | CSCc1noc(CNC(=O)C2CCN(C3CCCCC3)CC2)n1 | -21.4%
113 | CC(C)CNC(=O)C[S+]([O-])Cc1csc(C2CCCCC2)n1 (stereo not drawn) | -13%
